From US12005126B2, “Compositions for oral administration of pentosan polysulfate in form of nanoparticles with improved intestinal absorption” (NEXTRARESEARCH S.R.L., priority 2018, dated 2024)

Assay: In-vivo pharmacokinetics study in rats after oral administration
Conditions: 1 mL, PPS conc. 4.64 mg/mL
Description: The bioavailability of PPS from the formulations of this invention can be evaluated in rats upon oral administration by gavage of the powder dispersion in comparison to the solution of non-formulated PPS
Plasma concentration versus time curve were evaluated in an in-vivo pharmacokinetics study carried out in rats after oral administration of 1 mL of a PPS aqueous solution having a concentration 4.64 mg/mL (Form I) or 1 mL of the PPS/chitosan nanosuspension (PPS conc. 4.64 mg/mL). In the nanosuspension the ratio between the volume of solution of PPS (6.5 mg/mL) and of solution of chitosan (6.5 mg/mL) used for the production of the nanoparticles was 5:2 (v/v).

Area under the curve: 1306 µg·min/mL
tmax: 1 h
Substance: Pentosan Polysulfate sodium [PPS solution]
